In brackets after ≈: the same amount, converted by molar mass. Read-outs that look alike come from different tables or passages of the source.
Tests used:
[1] = test system: human intestinal microflora; test: Biotransformation by human intestinal bacteria (fecal microflora incubation); format: in vitro ADME; conditions: for isoflavone left in the incubation media: human, 120 h, 100 µM
Protocol: Fresh human fecal samples were collected from 4 volunteers. Five grams of each were pooled together and mixed well with 30 mL BHI culture medium. The fecal suspension was centrifuged at 200 g for 5 min and supernatant was decanted and centrifuged at 5,000 g for another 30 min. The resultant precipitate was re-suspended with 10 mL BHI medium to produce intestinal micro flora solution.
As the biotransformation of drugs by human intestinal bacteria was determined in a 5 mL incubation system containing 250 μL intestinal microflora solution, 50 μL stock solution in DMSO in BHI medium. […] Zero-minute incubations served as controls. Reactions were stopped by extracting samples with 15 ml of ethanol twice. The two ethanol extractions were combined, dried and re-suspended in 80% methanol for HPLC/MS analysis.

[2] = test system: human intestinal microsomes; test: Metabolism of isoflavone mixtures by human intestinal microsomes; format: in vitro ADME
Protocol: (§1) Human liver microsomes, intestinal microsomes, and hepatocytes of human female origin were purchased from XenoTech. All chemicals were purchased from Sigma-Aldrich. […] The final DMSO in buffer or media was kept at 0.1%. Protocols supplied by XenoTech Inc., the supplier, were used for glucuronidation with microsomal incubation, and hepatocyte incubation. Samples were analyzed using LC/MS.

human hepatocytes = test: Metabolism of isoflavone mixtures by human hepatocytes; format: in vitro ADME
Protocol: as §1

[3] = Plasma protein binding of absorbable aglycones; format: in vitro ADME
Source text: (§2) The protocol used by (Moon, Sagawa et al. 2006) was used for measuring plasma protein binding of the absorbable aglycones. Parameters have been used for PBPK simulation. Conjugates of Biochanin A, formononetin, Genistein, Daidzein and Equol are predominant components in plasma. The respective aglycones constitute less than 5% of the total concentration.

[4] = CaCo-2 permeability of isoflavones in a Red clover extract; conditions: human
MC3T3 cells = test: Osteoblast differentiation of MC3T3 cells (ALP/cell number); format: cell-based; conditions: 10 μM total isoflavones, 1 week
Protocol: Effects of isoflavones on the differentiation of osteoblast in MC3T3 cells followed Ge et al., 2006 and osteoclast differentiation in Raw264.7 cells followed Garcia Palacios et al., 2005. Cell numbers were measured with CellTag from Li-Cor Biosciences. Both activities of alkaline and acid phosphatase were measured with a plate reader at 405 nm. Isoflavones were first dissolved in DMSO and stock solutions were prepared at 10 mM and the final concentration of total isoflavones in test solution was 10 μM. Osteoblast and osteoclast differentiations were quantified by measuring activities of alkaline phosphatase (ALP) and acidic phosphatase (ACP). ALP is highly expressed by the mature osteoblasts and ACP is expressed by osteoclasts. Values of integrated intensity of fluorescence from […] staining serve as a correction factor for the difference in cell numbers. Therefore, ALP/cell number and ACP/cell number ratios are used to quantify osteoblast and osteoclast activities. Confluence MC3T3 cells were treated with 10 μM of isoflavones for 1 week and then the activity of alkaline phosphatase (ALP) was measured as an indicator of differentiation. […] To examine if there were any synergistic effects, two isoflavones were mixed in a 1:9 ratio and tested in the final concentration of 10 μM. […]

Raw264.7 cells = test: Osteoclast differentiation in Raw264.7 cells (ACP/cell number); format: cell-based; conditions: 10 μM total isoflavones, MCSF and RANKL stimulated
Protocol: Effects of isoflavones on the differentiation of osteoblast in MC3T3 cells followed Ge et al., 2006 and osteoclast differentiation in Raw264.7 cells followed Garcia Palacios et al., 2005. Cell numbers were measured with CellTag from Li-Cor Biosciences. Both activities of alkaline and acid phosphatase were measured with a plate reader at 405 nm. Isoflavones were first dissolved in DMSO and stock solutions were prepared at 10 mM and the final concentration of total isoflavones in test solution was 10 μM. Osteoblast and osteoclast differentiations were quantified by measuring activities of alkaline phosphatase (ALP) and acidic phosphatase (ACP). ALP is highly expressed by the mature osteoblasts and ACP is expressed by osteoclasts. Values of integrated intensity of fluorescence from […] staining serve as a correction factor for the difference in cell numbers. Therefore, ALP/cell number and ACP/cell number ratios are used to quantify osteoblast and osteoclast activities. Raw246.7 cells were treated with MCSF and RANKL to stimulate the differentiation of osteoclasts. Isoflavones were added at the final concentration of 10 μM to examine their ability to inhibit differentiation.

plasma protein = test: Plasma protein binding of absorbable aglycones; format: in vitro ADME
Source text: as §2

[5] = Solubility interactions of isoflavones in fasted simulated intestinal fluid (FaSSIF); format: physicochemical; conditions: for Biochanin A saturation concentration: fasted media, 37° C.
Protocol: Isoflavones: daidzein, genistein, formononetin and Biochanin A were obtained from Indofine. Simulated intestinal fluid buffer powder mimicking a fasted state (FaSSIF) was obtained from Biorelevant SIF media, Biorelevant.com, Switzerland.
To prepare accurate concentrations of isoflavones in microtubes, stock solutions of individual isoflavones were prepared at 1 mg/mL in methanol. The amount of isoflavone designated to be held constant was provided at a concentration that well exceeded (about 20×) the saturation concentration for that isoflavone. The appropriate amount of stock was transferred to each microtube and the material was dried down in a vacuum centrifuge.
The competing isoflavone was prepared at 0, 1, 5, 10, 50, 100, 200 μg/mL (FIGS. 11 and 12) and, in the case of formononetin, 400 μg/mL (FIG. 9).
In the case of formononetin competition with Biochanin A, the amount of formononetin was held constant at 50 μg in 1 ml buffer (saturation concentration for formononetin in FaSSIF is about 2 μg/mL). The competing Biochanin A was prepared at 0, 1, 5, 10, 50, 100 and 200 μg/mL (FIG. 10).
Each tube was then reconstituted with 1 mL of FaSSIF buffer, sonicated and allowed to equilibrate with occasional agitation for 24 hours at 37° C. This produced a solution that contained saturated isoflavone concentrations mimicking mammalian intestinal conditions.
At the end of 24 hours each tube containing isoflavones and FaSSIF buffer was briefly centrifuged at 5000 rpm in a microcentrifuge held at 37° C. (2 minutes). A portion of the supernatant (400 μL) was then immediately placed in a centrifugal filter unit (UltraFree-MC-GV […]) and the sample filtered by centrifugation (8000 rpm, 5 minutes, 37° C.). Upon filtration 200 μL filtrate was immediately placed in a microtube and 200 μL methanol added to ensure that the isoflavones remained in solution. The sample was mixed and 200 μL of the mixture was transferred to injection vials provided with 200 μL polypropylene injection inserts.
The samples were analyzed by HPLC with diode array detection at 260 nm using 20 μL injections.

Caco-2 = conditions: human
in vitro = conditions: human, Caco-2

Row | SMILES | metabolism by human intestinal microsomes ([2]; female, human) | rate of metabolism by human hepatocytes (human hepatocytes; female, human) | Papp [4] | bio-transformation products formed by intestinal microflora [1] | fraction unbound [3] | osteoclast differentiation (Raw264.7 cells) | other results
1 | Oc1ccc([C@H]2COc3cc(O)ccc3C2)cc1 [Equol] | 1.07E-4 ml/min/mg protein | 1.21E-5 ml/min/million cells |  | most resistant to bio-transformation | < 0.03 |  | isoflavone left in the incubation media [1]: over 60%
2 | O=c1c(-c2ccc(O)cc2)coc2cc(O[C@@H]3O[C@H](CO)[C@@H](O)[C@H](O)[C@H]3O)ccc12 [Daidzin] |  |  | 0.536 ×10⁻⁶ cm/s |  |  |  | 
3 | COc1ccc(-c2coc3cc(O[C@@H]4O[C@H](CO)[C@@H](O)[C@H](O)[C@H]4O)ccc3c2=O)cc1 [Ononin] |  |  | 0.122 ×10⁻⁶ cm/s |  |  |  | 
4 | COc1ccc(-c2coc3cc(O)cc(O)c3c2=O)cc1 [Biochanin A] |  |  |  | dihydrobiochanin A, genistein, and dihydrogenistein |  | highest inhibition | metabolism by human intestinal microsomes [2]: 5.41E-4 ml/min/mg protein; rate of metabolism by human hepatocytes (human hepatocytes): 8.88E-6 ml/min/million cells; ALP activity (osteoblast differentiation) (MC3T3 cells): highest ALP activity; Plasma protein binding (plasma protein): over 97%; Biochanin A saturation concentration ([5]; in the presence of 200 μg/mL daidzein): about 8.7 μg/mL; Biochanin A saturation concentration ([5]; in the presence of 200 μg/mL genistein): about 24.2 μg/mL; Biochanin A saturation concentration ([5]; in the presence of 400 μg/mL formononetin): about 4.5 μg/mL; Mean Peff (Caco-2): 10.8 ×10⁻⁶ cm/s
5 | O=c1c(-c2ccc(O)cc2)coc2cc(O)ccc12 [Daidzein] | 6.32E-5 ml/min/mg protein | 4.07E-6 ml/min/million cells |  |  | ~0.2 | stimulating osteoclast differentiation | Papp (in vitro): 26.6 ×10⁻⁶ cm/s
6 | O=c1c(-c2ccc(O)cc2)coc2cc(O)cc(O)c12 [Genistein] |  |  | 27.5 ×10⁻⁶ cm/s |  | < 0.03 | stimulating osteoclast differentiation | bio-transformation products formed by intestinal microflora ([1]; 100 μM, anaerobic, 37° C., up to 120 h): dihydrogenistein; metabolism by human intestinal microsomes ([2]; isoflavone mixtures, glucuronidation, female origin): 4.28E-4 ml/min/mg protein; rate of metabolism by human hepatocytes (human hepatocytes; isoflavone mixtures, female origin): 5.14E-6 ml/min/million cells
7 | COc1ccc(-c2coc3cc(O[C@@H]4O[C@H](CO)[C@@H](O)[C@H](O)[C@H]4O)cc(O)c3c2=O)cc1 [Biochanin A glucoside] |  |  |  |  |  |  | Mean Peff (Caco-2): 0.0164 ×10⁻⁶ cm/s

Second part, led by results:

Row | metabolism by human intestinal microsomes ([2]; female, human) | rate of metabolism by human hepatocytes (human hepatocytes; female, human) | Papp [4] | SMILES | bio-transformation products formed by intestinal microflora [1] | fraction unbound [3] | osteoclast differentiation (Raw264.7 cells) | other results
8 | 7.31E-5 ml/min/mg protein | 3.45E-6 ml/min/million cells | 22 ×10⁻⁶ cm/s | COc1ccc(-c2coc3cc(O)ccc3c2=O)cc1 [Formononetin] | dihydroformononetin, dihydrodaidzein, daidzein, and equol | < 0.03 |  | isoflavone left in the incubation media [1]: over 20%; solubility thermodynamic at 24 h ([5]; 37 °C, fassif, thermodynamic from solid): ~2 µg/mL (≈ 7.46 µM)
9 |  |  | 0.346 ×10⁻⁶ cm/s | O=c1c(-c2ccc(O)cc2)coc2cc(O[C@@H]3O[C@H](CO)[C@@H](O)[C@H](O)[C@H]3O)cc(O)c12 [Genistin] |  |  |  | 
